Values joined by “and” are separate entries in the source; they are usually repeats but may differ in a detail not shown here. Identical values can stand only once. Non-standard residues stand in square brackets, D forms with d. Residues, ends and D or L forms follow the SMILES beside them. *: point of attachment. boroGlu = O=C(O)CC[C@H](N*)B(O)O; Gly(cPr) = N[C@H](C(=O)O)C1CC1
Experiments:
His6-CylA-27-412 [1] = molecular target: T1, His6-CylA-27-412 (Enterococcus faecalis, UniProt A0A2P6AWB8); experiment: FRET assay, initial rates of FRET peptide cleavage; format: biochemical; settings: 762, 254, or 85 pM of inhibitor (substoichiometric; enzyme 20 nM)
T1 sequence (A0A2P6AWB8 27-412): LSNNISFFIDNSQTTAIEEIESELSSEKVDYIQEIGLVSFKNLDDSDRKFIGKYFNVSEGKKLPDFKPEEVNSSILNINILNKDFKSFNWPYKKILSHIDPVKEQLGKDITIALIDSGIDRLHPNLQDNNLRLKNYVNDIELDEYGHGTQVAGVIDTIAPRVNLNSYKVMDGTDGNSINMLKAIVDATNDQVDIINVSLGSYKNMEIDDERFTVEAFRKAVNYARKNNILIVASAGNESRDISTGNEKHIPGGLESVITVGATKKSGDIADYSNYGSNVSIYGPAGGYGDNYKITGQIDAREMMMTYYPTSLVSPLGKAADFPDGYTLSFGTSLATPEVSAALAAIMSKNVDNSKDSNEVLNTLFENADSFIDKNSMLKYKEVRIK
Procedure: A FRET assay was developed to directly detect the inhibition of His6-CylA-27-412 activity by inhibitor 9. Fmoc SPPS was used to prepare a FRET labeled substrate. The substrate recognition sequence and a portion of the N-terminus of unmodified CylLS were embedded in between N-terminal Asp(EDANS) and C-terminal Lys(DABCYL) residues (Fig. 5A).
A Structure of the FRET substrate and its cleavage by CylA. Samples of FRET substrate (44 µM) in PBS (pH = 7.4) before and after treatment with His6-CylA-27-412 (200 nM) overnight at 37 °C. […] Points represent the mean. Error bars represent the standard of deviation and are centered at the mean. C The relationship between relative enzyme activity (vi/vo) and concentration of 9. […] The colored line represents the calculated fit function. Points represent the mean and error bars represent the standard of deviation centered at the mean. […] For (D) and (E) absorbance at 220 nm was monitored. […] Statistical significance was calculated using a one sample and one-sided t test. *P < 0.05, **P < 0.01. […]
The emission intensity of EDANS was measured over a 4 h period using a BioTek Synergy H4 plate reader. The slope of the linear portion of the emission intensity as a function of time curve was calculated (vi), divided by the slope of an uninhibited control (vo), and the ratio (vi/vo) was plotted as function of total inhibitor concentration.

[2] = system: cylLL, cylLS, and cylA transcripts in C+ E. faecalis ATCC 29212; experiment: RT-qPCR of cylLL, cylLS and cylA transcripts; format: cell-based, Enterococcus faecalis
Procedure: Since the cytolysin BGC is often expressed in two transcripts because of the presence of a weak intergenic terminator between cylLL and cylM, primers and amplicons were selected for cylLL, cylLS and cylA[67].
The amounts of cylLL, cylLS, and cylA transcripts relative to the amount of 16S rRNA were determined by RT-qPCR. Amplicons and primers used to quantify cylLL, cylLS and 16S rRNA were identical to those previously reported. All primers are listed in Supplementary Table 3. Overnight cultures of E. faecalis ATCC 29212 were prepared as described in ‘Detection of CylLS” from extracts of E. faecalis’. Upon inoculation, samples were treated with 100 μM of 9 or vehicle. The samples were incubated at 37 °C for 20 h, then cells were collected by centrifugation (5000 g for 10 min). The supernatant was removed and the cells pellets were re-suspended in Lysis buffer (10 mM TrisHCl, 3 mg/mL lysozyme, pH = 7.8) at a concentration of 160 μL of Lysis buffer for 1 mL of overnight culture. The cells were incubated in Lysis buffer at room temperature for 15 min then RNA was extracted using a Monarch® Total RNA Miniprep Kit. Isolated RNA was immediately converted to cDNA using an iScript™ cDNA Synthesis Kit. cDNA was amplified using a SsoAdvanced Universal SYBR Green Supermix and a StepOnePlus Real-Time PCR System (Applied Biosystems). The expression level of each gene in each sample was determined by taking the difference between the CT of the amplification curve for the gene of interest (cylLL, cylLS or cylA) and the CT of the amplification curve for 16S rRNA, yielding ΔCT. ΔΔCT was determined by taking the difference between the ΔCT of the inhibitor treated sample and the ΔCT of the inhibitor-free control for each gene. Fold change in gene expression was calculature using Eq. (2)[76]. Four biological replicates were performed.2 Foldchangeingeneexpression=2^ΔΔCT

His6-CylA-27-412 [3] = molecular target: T1, His6-CylA-27-412; experiment: Analytical size exclusion chromatography (pro-domain release); settings: increasing inhibitor:CylA ratio
Procedure: To gain more insight into this phenomenon, His6-CylA-27-412 that had undergone complete autolytic cleavage as determined by SDS-PAGE and that had been purified by size exclusion chromatography (SEC), was analyzed by analytical SEC (aSEC) in the presence of inhibitor 9. […] This assignment was supported by SDS-PAGE analysis of the eluted fractions (Supplementary Fig. 8). […] The SEC retention time data is inconsistent with CylA forming higher order oligomers, ruling out a DegP-like activation mechanism.
Samples of His6-CylA-27-412 prepared as described in ‘Expression and purification of His6-CylA-27-412’ were diluted to a concentration of 50 μM and injected (20 μL injection volume) into an Agilent 1260 infinity analytical high-performance liquid chromatography system equipped with a Biozen™ 1.8 μm, 300 × 4.6 mm LC column pre-equilibriated with aSEC buffer (100 mM NaHPO4, 200 mM NaCl, pH = 7.4). Absorbance at 220 nm was monitored. A flow rate of 0.25 mL/min was used for all experiments. Retention time was correlated to protein size using a Gel Filtration Standard (Biorad) and samples of carbonic anhydrase isolated from bovine erythrocytes (Sigma Aldrich) and albumin isolated from bovine serum (Sigma Aldrich).

[4] = 100 μM of 9, untreated control = 1.0

Q: Which results are given for `CC(=O)NCC(=O)N[C@@H](CC(=O)O)C(=O)N[C@H](C(=O)N[C@@H](CCC(N)=O)C(=O)N[C@@H](C)C(=O)N[C@@H](CCC(=O)O)B(O)O)C1CC1` [Compound 9] (Ac-GD[Gly(cPr)]QA-boroGlu)?
A: rate of FRET peptide cleavage (His6-CylA-27-412 [1]): increased significantly; Fold Change, gene CylA (Figure 8D), replicates [2, 4]: 0.01989 and 0.0236 and 0.00144 and 0.00137; Fold Change, gene CylLL (Figure 8D), replicates [2, 4]: 0.00585 and 0.2177 and 0.1852; Fold Change, gene CylLS (Figure 8D), replicates [2, 4]: 0.2335 and 0.2124 and 0.00397 and 0.00605; reduction in cylA transcripts ([2]; 100 μM, vs untreated control): 86 fold; reduction in cylLL transcripts ([2]; 100 μM, vs untreated control): 9-10 fold; reduction in cylLS transcripts ([2]; 100 μM, vs untreated control): 9-10 fold; conversion of CylA-96-412°His6-27-95 to the 12.1 min peak (pro-domain release), aSEC (His6-CylA-27-412 [3]): transition appeared complete once a stoichiometric equivalent of inhibitor was added

— PMC12304293, “Combatting virulent gut bacteria by inhibiting the biosynthesis of a two-component lanthipeptide toxin” (Nature Communications, 2025)
